The source of these data is ChEMBL document CHEMBL5465560, “Selectivity Literature for EUbOPEN Chemogenomic Library” (2024).

In assay [1] the target is RAC-gamma serine/threonine-protein kinase (Homo sapiens, UniProt Q9Y243). The assay is described as follows: Selectivity interaction (Kinase panel (Z-LYTE Assay)) EUB0001632a AKT3. The following applies: at 10 µM.
Assay [2] has as its target TRAF2 and NCK-interacting protein kinase (Homo sapiens) (UniProt Q9UKE5). The assay is described as follows: Selectivity interaction (KinomeScan (DiscoverX)) EUB0001619a TNIK. As to conditions: at 1 µM.
Assay [3] has as its target Receptor-type tyrosine-protein kinase FLT3 (Homo sapiens) (UniProt P36888). The assay is described as follows: Selectivity interaction (KinomeScan (DiscoverX)) EUB0000666a FLT3. As to conditions: at 10 µM.
Assay [4] has as its target T1, Hormonally up-regulated neu tumor-associated kinase (Homo sapiens) (UniProt P57058).
T1 sequence (whole entry): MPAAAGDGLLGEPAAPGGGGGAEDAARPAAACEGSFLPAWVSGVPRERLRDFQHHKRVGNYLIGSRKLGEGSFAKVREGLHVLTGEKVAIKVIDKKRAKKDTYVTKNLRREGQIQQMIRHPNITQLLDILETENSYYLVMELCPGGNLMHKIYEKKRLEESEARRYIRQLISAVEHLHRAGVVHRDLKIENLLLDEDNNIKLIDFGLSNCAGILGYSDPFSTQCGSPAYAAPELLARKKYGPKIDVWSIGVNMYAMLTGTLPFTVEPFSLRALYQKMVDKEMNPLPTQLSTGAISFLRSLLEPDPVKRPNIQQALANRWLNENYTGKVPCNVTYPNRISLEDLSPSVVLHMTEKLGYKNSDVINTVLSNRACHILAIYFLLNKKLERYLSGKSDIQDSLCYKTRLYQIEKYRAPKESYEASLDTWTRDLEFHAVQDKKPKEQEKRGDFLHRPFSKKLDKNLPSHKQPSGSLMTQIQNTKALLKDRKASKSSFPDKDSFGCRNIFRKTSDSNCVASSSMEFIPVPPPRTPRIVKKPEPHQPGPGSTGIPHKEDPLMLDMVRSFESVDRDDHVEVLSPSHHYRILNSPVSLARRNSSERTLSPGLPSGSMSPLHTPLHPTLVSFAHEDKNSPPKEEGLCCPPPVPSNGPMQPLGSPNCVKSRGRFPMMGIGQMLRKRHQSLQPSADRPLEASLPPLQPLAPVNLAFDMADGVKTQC
The assay is described as follows: Selectivity interaction (KinomeScan (DiscoverX)) EUB0000607a HUNK. As to conditions: at 10 µM.

Assay [5] has as its target eIF-2-alpha kinase GCN2 (Homo sapiens) (UniProt Q9P2K8). The assay is described as follows: Selectivity interaction (ActivX KiNativ screen (kinase selectivity in THP-1 cell lysates)) EUB0000639a EIF2AK4. In kind it is subcellular. As to conditions: lysate, at 5 µM.
In assay [6] the target is Serine/threonine-protein kinase Nek7 (Homo sapiens) (UniProt Q8TDX7). The assay is described as follows: Selectivity interaction (KinomeScan (DiscoverX)) EUB0000655a NEK7. The following applies: at 10 µM.
Sequence of Serine/threonine-protein kinase Nek7 (Homo sapiens) (Q8TDX7 whole entry, looked up, the tested form may be a part): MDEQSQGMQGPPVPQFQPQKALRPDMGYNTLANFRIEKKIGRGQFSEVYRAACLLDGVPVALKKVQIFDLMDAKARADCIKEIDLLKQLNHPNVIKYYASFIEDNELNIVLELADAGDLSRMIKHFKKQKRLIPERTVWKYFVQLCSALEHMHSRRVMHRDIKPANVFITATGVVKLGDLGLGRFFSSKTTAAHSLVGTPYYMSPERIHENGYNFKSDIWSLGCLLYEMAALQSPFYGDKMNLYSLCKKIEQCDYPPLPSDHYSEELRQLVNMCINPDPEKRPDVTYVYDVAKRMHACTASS
The target in assay [7] is Histone-lysine N-methyltransferase SETDB1 (Homo sapiens) (UniProt Q15047). The assay is described as follows: Selectivity interaction (PWWP, WD40, and Tudor domain panel (DSLS measurements, literature)) EUB0000270b SETDB1.
For assay [8], the target named is Potassium voltage-gated channel subfamily A member 1 (Homo sapiens) (UniProt Q09470). The assay is described as follows: Selectivity interaction (Panel of non-epigenetic targets (kinases, GPCRs, ion channels, and transporters, Eurofins) ) EUB0000271b KCNA1. The following applies: at 1 µM.
Sequence of Potassium voltage-gated channel subfamily A member 1 (Homo sapiens) (Q09470 whole entry): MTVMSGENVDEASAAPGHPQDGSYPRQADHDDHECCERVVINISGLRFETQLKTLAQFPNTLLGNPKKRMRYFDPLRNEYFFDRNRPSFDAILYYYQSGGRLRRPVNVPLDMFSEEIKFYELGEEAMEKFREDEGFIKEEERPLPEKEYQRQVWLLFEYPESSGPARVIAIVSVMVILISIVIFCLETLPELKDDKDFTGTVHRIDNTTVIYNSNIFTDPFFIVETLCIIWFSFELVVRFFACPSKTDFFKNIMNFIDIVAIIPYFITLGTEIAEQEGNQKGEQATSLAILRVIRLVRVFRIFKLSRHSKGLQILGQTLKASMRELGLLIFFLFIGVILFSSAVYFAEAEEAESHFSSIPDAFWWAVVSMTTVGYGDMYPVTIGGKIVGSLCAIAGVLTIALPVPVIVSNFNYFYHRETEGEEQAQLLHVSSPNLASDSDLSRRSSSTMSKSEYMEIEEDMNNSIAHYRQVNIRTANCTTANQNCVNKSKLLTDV
Assay [9] deals with T2, Protein kinase C epsilon type (Homo sapiens) (UniProt Q02156).
T2 sequence (whole entry): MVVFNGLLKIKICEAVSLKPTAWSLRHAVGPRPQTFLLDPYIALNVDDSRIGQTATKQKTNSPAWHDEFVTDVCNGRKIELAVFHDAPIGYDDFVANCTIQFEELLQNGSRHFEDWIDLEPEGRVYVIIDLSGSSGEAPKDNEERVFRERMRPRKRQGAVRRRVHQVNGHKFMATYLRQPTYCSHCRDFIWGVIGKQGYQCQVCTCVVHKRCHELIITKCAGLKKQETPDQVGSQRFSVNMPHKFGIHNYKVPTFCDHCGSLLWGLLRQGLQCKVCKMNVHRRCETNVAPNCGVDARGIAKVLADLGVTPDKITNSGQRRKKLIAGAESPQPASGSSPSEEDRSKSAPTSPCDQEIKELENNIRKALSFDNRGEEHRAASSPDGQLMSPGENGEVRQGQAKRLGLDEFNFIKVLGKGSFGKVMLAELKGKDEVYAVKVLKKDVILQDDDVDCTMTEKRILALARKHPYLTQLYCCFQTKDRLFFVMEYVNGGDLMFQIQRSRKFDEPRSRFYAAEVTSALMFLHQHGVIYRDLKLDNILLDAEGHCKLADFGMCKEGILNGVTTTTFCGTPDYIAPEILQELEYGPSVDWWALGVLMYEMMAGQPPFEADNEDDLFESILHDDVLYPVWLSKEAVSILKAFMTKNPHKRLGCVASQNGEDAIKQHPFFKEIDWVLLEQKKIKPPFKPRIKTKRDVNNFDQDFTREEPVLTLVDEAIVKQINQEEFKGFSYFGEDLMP
The assay is described as follows: Selectivity interaction (Millipore kinase profiler) EUB0000124b PRKCE. As to conditions: at 10 µM.

The target of assay [10] is T3, MAP/microtubule affinity-regulating kinase 4 (Homo sapiens) (UniProt Q96L34).
T3 sequence (whole entry): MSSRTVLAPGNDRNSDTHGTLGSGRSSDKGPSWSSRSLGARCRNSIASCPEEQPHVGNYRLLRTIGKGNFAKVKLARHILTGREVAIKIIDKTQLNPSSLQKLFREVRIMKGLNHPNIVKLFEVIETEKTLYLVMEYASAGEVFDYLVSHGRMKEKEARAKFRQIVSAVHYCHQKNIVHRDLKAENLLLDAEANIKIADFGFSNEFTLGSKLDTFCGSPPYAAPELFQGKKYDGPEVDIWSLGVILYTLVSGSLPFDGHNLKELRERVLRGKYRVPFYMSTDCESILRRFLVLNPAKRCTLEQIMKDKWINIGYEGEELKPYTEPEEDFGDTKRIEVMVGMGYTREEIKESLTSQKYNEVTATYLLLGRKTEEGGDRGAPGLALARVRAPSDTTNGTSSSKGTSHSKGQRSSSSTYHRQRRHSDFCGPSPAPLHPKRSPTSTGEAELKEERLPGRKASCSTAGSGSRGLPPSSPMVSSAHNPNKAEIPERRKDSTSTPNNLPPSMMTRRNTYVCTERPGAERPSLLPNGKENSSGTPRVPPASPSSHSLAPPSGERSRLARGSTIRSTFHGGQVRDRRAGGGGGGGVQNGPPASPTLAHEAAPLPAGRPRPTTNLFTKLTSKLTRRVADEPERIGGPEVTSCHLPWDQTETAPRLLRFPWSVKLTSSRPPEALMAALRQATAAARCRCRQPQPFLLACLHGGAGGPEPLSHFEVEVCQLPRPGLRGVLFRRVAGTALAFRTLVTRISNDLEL
The assay is described as follows: Selectivity interaction (Kinase panel (KiNativ target engagement assay in Jurkat cells)) EUB0001635a MARK4. In kind it is cell-based. As to conditions: Selectivity number of off-targets 0.0, Selectivity number of targets 233.0, Source Knowledge https://www.sciencedirect.com/science/article/pii/S2451945619300674?via%3Dihub, at 1 µM.

Sequence of TRAF2 and NCK-interacting protein kinase (Homo sapiens) (Q9UKE5 whole entry, looked up): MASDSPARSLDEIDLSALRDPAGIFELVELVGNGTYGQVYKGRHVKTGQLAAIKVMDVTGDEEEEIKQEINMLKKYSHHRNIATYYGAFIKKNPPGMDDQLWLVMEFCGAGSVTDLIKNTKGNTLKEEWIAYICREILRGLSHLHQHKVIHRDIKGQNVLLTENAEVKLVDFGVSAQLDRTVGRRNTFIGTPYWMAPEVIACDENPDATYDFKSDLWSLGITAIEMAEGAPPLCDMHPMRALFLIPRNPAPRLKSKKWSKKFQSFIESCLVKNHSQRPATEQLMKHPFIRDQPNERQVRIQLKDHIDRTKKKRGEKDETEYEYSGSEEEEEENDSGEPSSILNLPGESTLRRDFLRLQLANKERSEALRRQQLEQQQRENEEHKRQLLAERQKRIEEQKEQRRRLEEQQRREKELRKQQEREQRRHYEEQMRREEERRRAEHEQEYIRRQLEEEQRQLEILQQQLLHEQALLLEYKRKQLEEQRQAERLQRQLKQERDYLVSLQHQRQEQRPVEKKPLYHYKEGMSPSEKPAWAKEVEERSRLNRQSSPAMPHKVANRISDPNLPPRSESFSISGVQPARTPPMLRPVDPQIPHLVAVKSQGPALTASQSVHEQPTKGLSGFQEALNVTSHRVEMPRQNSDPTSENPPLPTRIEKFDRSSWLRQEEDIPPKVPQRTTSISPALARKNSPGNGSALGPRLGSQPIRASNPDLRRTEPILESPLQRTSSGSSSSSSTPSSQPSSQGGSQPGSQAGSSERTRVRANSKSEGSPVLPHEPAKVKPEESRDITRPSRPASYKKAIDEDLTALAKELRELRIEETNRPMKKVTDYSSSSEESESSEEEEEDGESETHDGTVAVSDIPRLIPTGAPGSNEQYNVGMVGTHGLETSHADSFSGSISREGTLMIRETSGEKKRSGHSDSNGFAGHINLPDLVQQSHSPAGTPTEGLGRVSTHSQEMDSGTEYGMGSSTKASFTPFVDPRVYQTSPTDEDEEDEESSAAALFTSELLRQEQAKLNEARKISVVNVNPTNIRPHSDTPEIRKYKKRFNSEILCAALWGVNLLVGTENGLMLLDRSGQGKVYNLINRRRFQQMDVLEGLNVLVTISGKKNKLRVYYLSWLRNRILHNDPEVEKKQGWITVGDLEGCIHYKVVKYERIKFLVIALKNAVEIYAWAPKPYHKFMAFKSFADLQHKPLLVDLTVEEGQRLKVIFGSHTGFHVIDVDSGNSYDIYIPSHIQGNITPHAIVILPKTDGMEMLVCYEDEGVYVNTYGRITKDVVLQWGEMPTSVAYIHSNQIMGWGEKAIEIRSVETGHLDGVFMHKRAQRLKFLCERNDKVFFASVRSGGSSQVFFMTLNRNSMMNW
Sequence of eIF-2-alpha kinase GCN2 (Homo sapiens) (Q9P2K8 whole entry): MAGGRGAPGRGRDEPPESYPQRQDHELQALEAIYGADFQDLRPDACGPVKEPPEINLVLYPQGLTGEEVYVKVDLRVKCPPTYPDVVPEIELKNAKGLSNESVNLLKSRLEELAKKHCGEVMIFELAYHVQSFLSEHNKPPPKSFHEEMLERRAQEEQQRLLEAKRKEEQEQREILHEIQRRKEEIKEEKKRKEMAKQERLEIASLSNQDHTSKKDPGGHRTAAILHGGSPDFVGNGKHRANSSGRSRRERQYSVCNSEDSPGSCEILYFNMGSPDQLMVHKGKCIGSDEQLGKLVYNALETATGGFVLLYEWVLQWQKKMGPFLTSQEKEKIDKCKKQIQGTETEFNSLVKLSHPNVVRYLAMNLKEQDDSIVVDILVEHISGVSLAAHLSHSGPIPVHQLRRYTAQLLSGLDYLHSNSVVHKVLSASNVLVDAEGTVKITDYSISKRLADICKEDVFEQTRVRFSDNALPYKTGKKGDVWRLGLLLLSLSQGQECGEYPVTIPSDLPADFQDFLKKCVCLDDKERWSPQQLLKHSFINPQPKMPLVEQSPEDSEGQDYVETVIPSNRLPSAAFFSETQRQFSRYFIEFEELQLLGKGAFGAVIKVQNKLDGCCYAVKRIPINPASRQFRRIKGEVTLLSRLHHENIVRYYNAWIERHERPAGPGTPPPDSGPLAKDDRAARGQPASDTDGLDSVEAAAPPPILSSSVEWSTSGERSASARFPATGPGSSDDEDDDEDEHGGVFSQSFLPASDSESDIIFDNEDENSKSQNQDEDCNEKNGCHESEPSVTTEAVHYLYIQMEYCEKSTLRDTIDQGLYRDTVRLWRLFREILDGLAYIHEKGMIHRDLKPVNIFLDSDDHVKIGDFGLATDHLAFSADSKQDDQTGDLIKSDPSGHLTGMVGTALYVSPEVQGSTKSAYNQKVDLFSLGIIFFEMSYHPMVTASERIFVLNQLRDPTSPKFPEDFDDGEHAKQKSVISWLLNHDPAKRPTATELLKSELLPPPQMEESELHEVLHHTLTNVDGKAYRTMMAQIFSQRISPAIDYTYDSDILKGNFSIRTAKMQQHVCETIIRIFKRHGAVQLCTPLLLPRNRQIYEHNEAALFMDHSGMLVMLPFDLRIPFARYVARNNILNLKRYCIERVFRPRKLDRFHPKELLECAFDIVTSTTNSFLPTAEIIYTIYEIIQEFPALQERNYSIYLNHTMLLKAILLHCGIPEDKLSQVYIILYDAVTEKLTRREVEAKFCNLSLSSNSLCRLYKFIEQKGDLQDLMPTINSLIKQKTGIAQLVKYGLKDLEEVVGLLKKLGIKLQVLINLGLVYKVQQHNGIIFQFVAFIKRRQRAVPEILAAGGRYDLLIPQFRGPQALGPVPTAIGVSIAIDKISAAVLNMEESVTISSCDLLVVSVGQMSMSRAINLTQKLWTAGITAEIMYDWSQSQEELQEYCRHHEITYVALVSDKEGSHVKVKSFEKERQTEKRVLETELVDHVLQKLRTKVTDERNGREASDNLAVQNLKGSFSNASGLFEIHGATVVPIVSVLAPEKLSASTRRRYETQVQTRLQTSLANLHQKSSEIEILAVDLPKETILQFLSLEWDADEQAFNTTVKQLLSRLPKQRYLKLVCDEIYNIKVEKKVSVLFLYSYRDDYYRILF
Sequence of RAC-gamma serine/threonine-protein kinase (Q9Y243 whole entry): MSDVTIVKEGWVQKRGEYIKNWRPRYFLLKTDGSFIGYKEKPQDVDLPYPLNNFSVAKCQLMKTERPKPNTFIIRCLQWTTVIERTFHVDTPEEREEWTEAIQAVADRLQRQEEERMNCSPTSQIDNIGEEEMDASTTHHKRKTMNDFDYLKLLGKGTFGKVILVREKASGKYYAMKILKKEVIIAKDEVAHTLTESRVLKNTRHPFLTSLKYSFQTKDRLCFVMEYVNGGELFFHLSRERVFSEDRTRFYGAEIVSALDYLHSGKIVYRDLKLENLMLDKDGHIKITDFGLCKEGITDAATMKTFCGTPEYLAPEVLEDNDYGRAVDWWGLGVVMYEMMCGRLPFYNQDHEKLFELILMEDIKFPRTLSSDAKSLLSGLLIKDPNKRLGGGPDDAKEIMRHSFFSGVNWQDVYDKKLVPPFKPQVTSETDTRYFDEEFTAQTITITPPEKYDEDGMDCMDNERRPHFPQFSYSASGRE

In turn, `Cn1cc(-n2cnc3c(NCc4nc5cc(Cl)c(Cl)cc5[nH]4)nc(N4CCOCC4)nc32)cn1` returned a % of control in assay [1] of 2.65%. Consider `N#Cc1cccc(-c2c[nH]c3ncnc(N4CCOCC4)c23)c1`, for which the % of control in [2] is 45%. For `O=C(NOC[C@H](O)CO)c1ccc(F)c(F)c1Nc1ccc(I)cc1F`, in assay [3], the % of control stood at 80%. As to `CNC(=O)Nc1ccc(-c2nc(N3CC4CCC(C3)O4)c3cnn(C4CCC5(CC4)OCCO5)c3n2)cc1`, the % of control in assay [4] amounted to 100%. For the molecule `CC[C@@H]1[C@H](F)C(=O)N[C@@H]1COc1nccc2cc(C(N)=O)c(OC)cc12` [ZIMLOVISERTIB], the % of inhibition in assay [5] stood at 19.4%. The molecule `CN(C)CCOc1ccc(-c2nc(-c3ccncc3)c(-c3ccc4c(c3)CC/C4=N\O)[nH]2)cc1` registered a % of control in [6] of 100%. Consider `Cc1cc(CN)cc(C)c1-c1ncn(C)c1-c1cncn1C`, for which the dTagg in assay [7] is 0.9 K. `Cc1cc(C)cc([C@@H]2c3cc(C)ccc3NC(=O)CN2C(=O)c2ccc(Br)s2)c1`: the % of inhibition in [8] was -10%. Consider `CC(=O)Nc1cccc(-n2c(=O)n(C3CC3)c(=O)c3c(Nc4ccc(I)cc4F)n(C)c(=O)c(C)c32)c1`, for which the % of control in assay [9] came out at 103%. Turning to `C=CC(=O)Nc1ccc(C(=O)Nc2[nH]nc3c2CN(C(=O)N[C@H](CN(C)C)c2ccccc2)C3(C)C)cc1`, the % of engagement in [10] was found to be 37%.
